# Measurements from US20140045823A1 (Neurocrine Biosciences, Inc., priority 2012, published 2014).
# Target: T1, human GPR119 (Homo sapiens, UniProt Q8TDV5)
# T1 construct: expression vector for human GPR119 cDNA (Acc. No. NP_848566); expressed in transfected cells; Min-6/hGPR119
# T1 sequence (Q8TDV5 1-335): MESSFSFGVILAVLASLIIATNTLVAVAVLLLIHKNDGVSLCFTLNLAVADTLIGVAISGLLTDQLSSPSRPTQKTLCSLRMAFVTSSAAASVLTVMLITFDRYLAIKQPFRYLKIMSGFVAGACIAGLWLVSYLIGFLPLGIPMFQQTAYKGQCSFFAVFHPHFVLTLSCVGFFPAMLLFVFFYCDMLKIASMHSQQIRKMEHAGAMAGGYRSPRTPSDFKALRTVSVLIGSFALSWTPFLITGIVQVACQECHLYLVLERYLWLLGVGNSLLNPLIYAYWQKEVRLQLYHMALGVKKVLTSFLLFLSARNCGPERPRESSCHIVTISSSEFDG
# Assay: AlphaScreen cAMP assay in MIN6 cells stably transfected with human GPR119
# Type: cell-based
# Conditions: Min-6/hGPR119 cells, 45 min at room temperature
# Method in brief: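 MIN6 cells stably expressing human GPR119, seeded 10000/well and grown 24 h, were exposed to compound in pH 7.4 buffer with 0.5 mM IBMX, 0.1% BSA and 1% DMSO for 45 min at room temperature. Intracellular cAMP then measured by AlphaScreen.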
row,Structure (SMILES),EC50 [nM]
1,"CC(C)(C)OC(=O)N1CCC(N(C(=O)c2ncc(-c3ccc(S(C)(=O)=O)cc3)cn2)C2CC2)CC1 [Example 68, 4-{Cyclopropyl-[5-(4-methanesulfonyl-phenyl)-pyrimidine-2-carbonyl]-amino}-piperidine-1-carboxylic acid tert-butyl ester]",544
2,"CC(C)(C)OC(=O)N1CCC(N(C(=O)c2cnc(-c3cccnc3)nc2)C2CC2)CC1 [Example 70, 4-[Cyclopropyl-(2-pyridin-3-yl-pyrimidine-5-carbonyl)-amino]-piperidine-1-carboxylic acid tert-butyl ester]",489
3,"CC(C)(C)OC(=O)N1CCC(N(C(=O)c2cnc(-c3cncnc3)nc2)C2CC2)CC1 [Example 71, 4-[([2,5′]Bipyrimidinyl-5-carbonyl)-cyclopropyl-amino]-piperidine-1-carboxylic acid tert-butyl ester]",90
4,"COc1ccccc1-c1ncc(C(=O)N(C2CC2)C2CCN(C(=O)OC(C)(C)C)CC2)cn1 [Example 73, 4-{Cyclopropyl-[2-(2-methoxy-phenyl)-pyrimidine-5-carbonyl]-amino}-piperidine-1-carboxylic acid tert-butyl ester]",1670
5,"COc1cccc(-c2ncc(C(=O)N(C3CC3)C3CCN(C(=O)OC(C)(C)C)CC3)cn2)c1 [Example 74, 4-{Cyclopropyl-[2-(3-methoxy-phenyl)-pyrimidine-5-carbonyl]-amino}-piperidine-1-carboxylic acid tert-butyl ester]",1010
6,"CC(C)(C)OC(=O)N1CCC(N(C(=O)c2cnc(-c3ccc(OC(F)(F)F)cc3)nc2)C2CC2)CC1 [Example 77, 4-{Cyclopropyl-[2-(4-trifluoromethoxy-phenyl)-pyrimidine-5-carbonyl]-amino}-piperidine-1-carboxylic acid tert-butyl ester]",55
7,"CC(C)(C)OC(=O)N1CCC(N(C(=O)c2cnc(-c3ccc(CO)cc3)nc2)C2CC2)CC1 [Example 81, 4-{Cyclopropyl-[2-(4-hydroxymethyl-phenyl)-pyrimidine-5-carbonyl]-amino}-piperidine-1-carboxylic acid tert-butyl ester]",98
8,"COc1ncc(-c2ncc(C(=O)N(C3CC3)C3CCN(C(=O)OC(C)(C)C)CC3)cn2)cn1 [Example 82, 4-[Cyclopropyl-(2′-methoxy-[2,5′]bipyrimidinyl-5-carbonyl)-amino]-piperidine-1-carboxylic acid tert-butyl ester]",65
9,"CC(C)(C)OC(=O)N1CCC(N(C(=O)c2cnc(-c3ccc(N4CCOCC4)cc3)nc2)C2CC2)CC1 [Example 84, 4-{Cyclopropyl-[2-(4-morpholin-4-yl-phenyl)-pyrimidine-5-carbonyl]-amino}-piperidine-1-carboxylic acid tert-butyl ester]",140
10,"CC(=O)NCc1ccc(-c2ncc(C(=O)N(C3CC3)C3CCN(C(=O)OC(C)(C)C)CC3)cn2)cc1 [Example 87, 4-({2-[4-(Acetylamino-methyl)-phenyl]-pyrimidine-5-carbonyl}-cyclopropyl-amino)-piperidine-1-carboxylic acid tert-buyl ester]",443
11,"CC(C)(C)OC(=O)N1CCC(N(C(=O)c2cnc(-c3ccc(C#N)c(F)c3)nc2)C2CC2)CC1 [Example 90, 4-{[2-(4-Cyano-3-fluoro-phenyl)-pyrimidine-5-carbonyl]-cyclopropyl-amino}-piperidine-1-carboxylic acid tert-butyl ester]",8
12,"CNS(=O)(=O)c1ccc(-c2ncc(C(=O)N(C3CC3)C3CCN(C(=O)OC(C)(C)C)CC3)cn2)cc1 [Example 92, 4-{Cyclopropyl-[2-(4-methanesulfamoyl-phenyl)-pyrimidine-5-carbonyl]-amino}-piperidine-1-carboxylic acid tert-butyl ester]",151
13,"CN(C)c1ccc(-c2ncc(C(=O)N(C3CC3)C3CCN(C(=O)OC(C)(C)C)CC3)cn2)cn1 [Example 93, 4-{Cyclopropyl-[2-(6-dimethylamino-pyridin-3-yl)-pyrimidine-5-carbonyl]-amino}-piperidine-1-carboxylic acid tert-butyl ester]",209
14,"CC(C)(C)OC(=O)N1CCC(N(C(=O)c2cnc(-n3cnc(CO)c3)nc2)C2CC2)CC1 [Example 94, 4-{Cyclopropyl-[2-(4-hydroxymethyl-imidazol-1-yl)-pyrimidine-5-carbonyl]-amino}-piperidine-1-carboxylic acid tert-butyl ester]",349
15,"Cc1ccn(-c2ncc(C(=O)N(C3CC3)C3CCN(C(=O)OC(C)(C)C)CC3)cn2)n1 [Example 96, 4-{Cyclopropyl-[2-(3-methyl-pyrazol-1-yl)-pyrimidine-5-carbonyl]-amino}-piperidine-1-carboxylic acid tert-butyl ester]",192

# Further compounds by falling EC50, results first:
row,EC50 [nM],Structure (SMILES)
1,1120,"CC(C)(C)OC(=O)N1CCC(N(C(=O)c2ncc(-c3ccc(C#N)nc3)cn2)C2CC2)CC1 [Example 69, 4-{[5-(6-Cyano-pyridin-3-yl)-pyrimidine-2-carbonyl]-cyclopropyl-amino}-piperidine-1-carboxylic acid tert-butyl ester]"
2,349,"CC(C)(C)OC(=O)N1CCC(N(C(=O)c2cnc(-c3ccc(S(N)(=O)=O)cc3)nc2)C2CC2)CC1 [Example 88, 4-{Cyclopropyl-[2-(4-sulfamoyl-phenyl)-pyrimidine-5-carbonyl]-amino}-piperidine-1-carboxylic acid tert-butyl ester]"
3,240,"Cc1ccc(-c2ncc(C(=O)N(C3CC3)C3CCN(C(=O)OC(C)(C)C)CC3)cn2)cn1 [Example 89, 4-{Cyclopropyl-[2-(6-methyl-pyridin-3-yl)-pyrimidine-5-carbonyl]-amino}-piperidine-1-carboxylic acid tert-butyl ester]"
4,229,"Cc1cnn(-c2ncc(C(=O)N(C3CC3)C3CCN(C(=O)OC(C)(C)C)CC3)cn2)c1 [Example 95, 4-{Cyclopropyl-[2-(4-methyl-pyrazol-1-yl)-pyrimidine-5-carbonyl]-amino}-piperidine-1-carboxylic acid tert-butyl ester]"
5,219,CC(C)(C)OC(=O)N1CCC(N(C(=O)c2ncc(-c3ccc(CC#N)cc3)cn2)C2CC2)CC1 [Example 67]
6,210,"CC(C)(C)OC(=O)N1CCC(N(C(=O)c2cnc(-c3ccc(NS(C)(=O)=O)cc3)nc2)C2CC2)CC1 [Example 79, 4-{Cyclopropyl-[2-(4-methanesulfonylamino-phenyl)-pyrimidine-5-carbonyl]-amino}-piperidine-1-carboxylic acid tert-butyl ester]"
7,171,"CCNC(=O)c1ccc(-c2ncc(C(=O)N(C3CC3)C3CCN(C(=O)OC(C)(C)C)CC3)cn2)cc1 [Example 86, 4-{Cyclopropyl-[2-(4-ethylcarbamoyl-phenyl)-pyrimidine-5-carbonyl]-amino}-piperidine-1-carboxylic acid tert-butyl ester]"
8,170,"CC(C)(C)OC(=O)N1CCC(N(C(=O)c2cnc(-c3cccc(C#N)c3)nc2)C2CC2)CC1 [Example 75, 4-{[2-(3-Cyano-phenyl)-pyrimidine-5-carbonyl]-cyclopropyl-amino}-piperidine-1-carboxylic acid tert-butyl ester]"
9,75,"CC(C)(C)OC(=O)N1CCC(N(C(=O)c2cnc(-c3ccc(S(C)(=O)=O)cc3)nc2)C2CC2)CC1 [Example 80, 4-{Cyclopropyl-[2-(4-methanesulfonyl-phenyl)-pyrimidine-5-carbonyl]-amino}-piperidine-1-carboxylic acid tert-butyl ester]"
10,71,"CCOc1ccc(-c2ncc(C(=O)N(C3CC3)C3CCN(C(=O)OC(C)(C)C)CC3)cn2)cc1 [Example 76, 4-{Cyclopropyl-[2-(4-ethoxy-phenyl)-pyrimidine-5-carbonyl]-amino}-piperidine-1-carboxylic acid tert-butyl ester]"
11,59,"CCc1nccn1-c1ncc(C(=O)N(C2CC2)C2CCN(C(=O)OC(C)(C)C)CC2)cn1 [Example 97, 4-{Cyclopropyl-[2-(2-ethyl-imidazol-1-yl)-pyrimidine-5-carbonyl]-amino}-piperidine-1-carboxylic acid tert-butyl ester]"
12,46,"COc1cc(-c2ncc(C(=O)N(C3CC3)C3CCN(C(=O)OC(C)(C)C)CC3)cn2)ccn1 [Example 85, 4-{Cyclopropyl-[2-(2-methoxy-pyridin-4-yl)-pyrimidine-5-carbonyl]-amino}-piperidine-1-carboxylic acid tert-butyl ester]"
13,15,"CC(C)(C)OC(=O)N1CCC(N(C(=O)c2cnc(-c3ccc(C#N)nc3)nc2)C2CC2)CC1 [Example 83, 4-{[2-(6-Cyano-pyridin-3-yl)-pyrimidine-5-carbonyl]-cyclopropyl-amino}-piperidine-1-carboxylic acid tert-butyl ester]"
14,14,"CC(C)(C)OC(=O)N1CCC(N(C(=O)c2cnc(-c3ccc(C#N)cc3)nc2)C2CC2)CC1 [Example 72, 4-{[2-(4-Cyano-phenyl)-pyrimidine-5-carbonyl]-cyclopropyl-amino}-piperidine-1-carboxylic acid tert-butyl ester]"
15,9,"CC(C)(C)OC(=O)N1CCC(N(C(=O)c2cnc(-c3ccc(CC#N)cc3)nc2)C2CC2)CC1 [Example 78, 4-{[2-(4-Cyanomethyl-phenyl)-pyrimidine-5-carbonyl]-cyclopropyl-amino}-piperidine-1-carboxylic acid tert-butyl ester]"
